target: human PDE4D catalytic domain (Homo sapiens (Human), UniProt Q08499); assay: PDE4 Assay (TR-FRET, FAM-cAMP cleavage); assay type: biochemical; conditions: Table 16, Examples 277-296; read-out: PDE4 IC50 range
Description: The human PDE4D catalytic domain (UniProt no. Q08499 [S380-L740]) was incubated with a mixture of non-labelled cAMP (cyclic adenosine monophosphate) and fluorescein amidite (FAM) conjugated cAMP and titrated test or reference Compound. Following brief incubation the enzymatic reaction was stopped by addition of binding buffer containing nanoparticles with immobilized trivalent metal ions capable of binding 1) AMP phospho groups and 2) terbium (Tb) donor fluorophores. Subsequent excitation of the Tb donor triggers time-resolved FRET to adjacent FAM acceptor molecules resulting in light emission. In the presence of a PDE4 inhibitor, AMP generation was reduced resulting in a lower fluorescence signal. The cAMP phosphodiester is not bound by the detection system.
The results were calculated as the molar concentrations resulting in 50% inhibition of the substrate cleavage compared to controls samples, and are expressed as a range of IC50 (nM).

human PDE4D catalytic domain, sequence (Q08499 380-740): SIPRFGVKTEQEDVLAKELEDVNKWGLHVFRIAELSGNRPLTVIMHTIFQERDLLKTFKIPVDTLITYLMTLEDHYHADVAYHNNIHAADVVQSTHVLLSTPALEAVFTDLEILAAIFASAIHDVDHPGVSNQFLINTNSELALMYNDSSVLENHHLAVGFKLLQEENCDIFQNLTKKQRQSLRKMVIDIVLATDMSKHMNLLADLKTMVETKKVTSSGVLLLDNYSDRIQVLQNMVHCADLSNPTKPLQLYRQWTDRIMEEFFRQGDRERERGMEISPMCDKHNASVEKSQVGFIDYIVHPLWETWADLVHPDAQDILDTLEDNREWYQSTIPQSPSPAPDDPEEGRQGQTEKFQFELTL

CCn1nc(C[C@@H](C)COC(=O)c2cocn2)c2c1C(=O)NCC1(CCOCC1)C2 [Example 277, [(2R)-3-(1-ethyl-8-oxo-spiro[6,7-dihydro-4H-pyrazolo[3,4-c]azepine-5,4′-tetrahydropyran]-3-yl)-2-methyl-propyl] oxazole-4-carboxylate] and CCn1nc(C[C@@H](C)COC(=O)c2cnsc2)c2c1C(=O)NCC1(CCOCC1)C2 [Example 284, [(2R)-3-(1-ethyl-8-oxo-spiro[6,7-dihydro-4H-pyrazolo[3,4-c]azepine-5,4′-tetrahydropyran]-3-yl)-2-methyl-propyl] isothiazole-4-carboxylate] cannot be ordered by IC50: < 100 nM for the first, < 100 nM for the second.

CCn1nc(C[C@@H](C)COC(=O)C2CCN(C(=O)OC)CC2)c2c1C(=O)NCC1(CCOCC1)C2 [Example 295, [(2R)-3-(1-ethyl-8-oxo-spiro[6,7-dihydro-4H-pyrazolo-[3,4-c]azepine-5,4′-tetrahydro-pyran]-3-yl)-2-methyl-propyl] 1-methoxycarbonylpiperidine-4-carboxylate] and CCn1nc(C[C@@H](C)COC(=O)c2cncs2)c2c1C(=O)NCC1(CCOCC1)C2 [Example 286, [(2R)-3-(1-ethyl-8-oxo-spiro[6,7-dihydro-4H-pyrazolo[3,4-c]azepine-5,4′-tetrahydropyran]-3-yl)-2-methyl-propyl] thiazole-5-carboxylate] cannot be ordered by IC50: < 100 nM for the first, < 100 nM for the second.

same assay, conditions: Table 17, Examples 297-316; read-out: PDE4 IC50 range

CCn1nc(CC(C)(C)COC(=O)c2cnc(C)o2)c2c1C(=O)NCC1(CCOCC1)C2 [Example 302, [3-(1-ethyl-8-oxo-spiro[6,7-dihydro-4H-pyrazolo[3,4-c]azepine-5,4′-tetrahydropyran]-3-yl)-2,2-dimethyl-propyl] 2-methyloxazole-5-carboxylate] and CCn1nc(CC(C)(C)COC(=O)c2cnc(C)nc2)c2c1C(=O)NCC1(CCOCC1)C2 [Example 308, [3-(1-ethyl-8-oxo-spiro[6,7-dihydro-4H-pyrazolo[3,4-c]azepine-5,4′-tetrahydropyran]-3-yl)-2,2-dimethyl-propyl] 2-methylpyrimidine-5-carboxylate] cannot be ordered by IC50: < 100 nM for the first, < 100 nM for the second.

same assay, conditions: human PDE4D catalytic domain (UniProt Q08499 [S380-L740]); 50% inhibition of substrate cleavage; read-out: PDE4 IC50 range

CCn1nc(CCCOC(=O)c2ccc(C(=O)N3CCCCC3)cc2)c2c1C(=O)NCC1(CCOCC1)C2 [Example 108, 3-(1-ethyl-8-oxo-spiro[6,7-dihydro-4H-pyrazolo[3,4-c]azepine-5,4′-tetrahydro-pyran]-3-yl)propyl 4-(piperidine-1-carbonyl)benzoate] and CCn1nc(CC(C)(C)COC(=O)c2ccc(C(=O)N3CCCCC3)cc2)c2c1C(=O)NCC1(CCOCC1)C2 [Example 222, [3-(1-ethyl-8-oxo-spiro[6,7-dihydro-4H-pyrazolo[3,4-c]azepine-5,4′-tetrahydro-pyran]-3-yl)-2,2-dimethyl-propyl] 4-(piperidine-1-carbonyl)benzoate] cannot be ordered by IC50: < 100 nM for the first, < 100 nM for the second.

First: CCn1nc(CCCOC(=O)C2CN(C(C)=O)C2)c2c1C(=O)NCC1(CCOCC1)C2 [Example 252, 3-(1-ethyl-8-oxo-spiro[6,7-dihydro-4H-pyrazolo[3,4-c]azepine-5,4′-tetrahydropyran]-3-yl)propyl 1-acetylazetidine-3-carboxylate]
Second: CCn1nc(CCCOC(=O)C2CCN(C(C)=O)CC2)c2c1C(=O)NCC1(CCOCC1)C2 [Example 261, 3-(1-ethyl-8-oxo-spiro[6,7-dihydro-4H-pyrazolo[3,4-c]azepine-5,4′-tetrahydropyran]-3-yl)propyl 1-acetylpiperidine-4-carboxylate]
The IC50 of the first is higher: 100 to 500 nM for the first, < 100 nM for the second. The second is the more potent here.

CCn1nc(CC(C)(C)COC(=O)c2ccc(S(=O)(=O)N(C)C)cc2)c2c1C(=O)NCC1(CCOCC1)C2 [Example 208, [3-(1-ethyl-8-oxo-spiro-[6,7-dihydro-4H-pyrazolo-[3,4-c]azepine-5,4′-tetra-hydropyran]-3-yl)-2,2-dimethyl-propyl] 4-(di-methylsulfamoyl)benzoate] and CCn1nc(CCCOC(=O)c2ccc(S(=O)(=O)NC)cc2)c2c1C(=O)NCC1(CCOCC1)C2 [Example 1, 3-(1-Ethyl-8-oxo-spiro[6,7-dihydro-4H-pyrazolo[3,4-c]azepine-5,4′-tetrahydropyran]-3-yl)propyl 4-(methylsulfamoyl)benzoate] cannot be ordered by IC50: < 100 nM for the first, < 100 nM for the second.

CCn1nc(CCCOC(=O)c2cnn(C)c2)c2c1C(=O)NCC1(CCOCC1)C2 [Example 238, 3-(1-ethyl-8-oxo-spiro[6,7-dihydro-4H-pyrazolo[3,4-c]azepine-5,4′-tetrahydropyran]-3-yl)propyl 1-methylpyrazole-4-carboxylate] and CCn1nc(CCCOC(=O)c2ccc(C)c(C)c2)c2c1C(=O)NCC1(CCOCC1)C2 [Example 13, 3-(1-ethyl-8-oxo-spiro[6,7-dihydro-4H-pyrazolo[3,4-c]azepine-5,4′-tetrahydropyran]-3-yl) propyl 3,4-dimethylbenzoate] cannot be ordered by IC50: < 100 nM for the first, < 100 nM for the second.

CCn1nc(CCCOC(=O)c2ccc(OC)c(Cl)c2)c2c1C(=O)NCC1(CCOCC1)C2 [Example 58, 3-(1-ethyl-8-oxo-spiro[6,7-dihydro-4H-pyrazolo[3,4-c]azepine-5,4′-tetrahydropyran]-3-yl)propyl 3-chloro-4-methoxy-benzoate] and CCn1nc(CCCOC(=O)c2ccc(Cl)cc2OC)c2c1C(=O)NCC1(CCOCC1)C2 [Example 61, 3-(1-ethyl-8-oxo-spiro[6,7-dihydro-4H-pyrazolo[3,4-c]azepine-5,4′-tetrahydropyran]-3-yl)propyl 4-chloro-2-methoxy-benzoate] cannot be ordered by IC50: < 100 nM for the first, < 100 nM for the second.

CCn1nc(CCCCOC(=O)C(C)C)c2c1C(=O)NCC1(CCOCC1)C2 [Example 121, 4-(1-ethyl-8-oxo-spiro[6,7-dihydro-4H-pyrazolo[3,4-c]azepine-5,4′-tetrahydropyran]-3-yl)butyl 2-methyl-propanoate] and CCn1nc(CCCCOC(=O)C2CCOC2)c2c1C(=O)NCC1(CCOCC1)C2 (stereo not shown) [Example 265, 4-(1-ethyl-8-oxo-spiro[6,7-dihydro-4H-pyrazolo[3,4-c]azepine-5,4′-tetrahydropyran]-3-yl)butyl tetrahydrofuran-3-carboxylate] cannot be ordered by IC50: < 100 nM for the first, < 100 nM for the second.

CCn1nc(CCCOC(=O)c2ccc(OC)cc2C(F)(F)F)c2c1C(=O)NCC1(CCOCC1)C2 [Example 81, 3-(1-ethyl-8-oxo-spiro[6,7-dihydro-4H-pyrazolo[3,4-c]azepine-5,4′-tetrahydro-pyran]-3-yl)propyl 4-methoxy-2-(trifluoromethyl)benzoate] and CCn1nc(CCCOC(=O)c2ccc(C(F)(F)F)cc2F)c2c1C(=O)NCC1(CCOCC1)C2 [Example 70, 3-(1-ethyl-8-oxo-spiro[6,7-dihydro-4H-pyrazolo[3,4-c]azepine-5,4′-tetrahydro-pyran]-3-yl)propyl 2-fluoro-4-(trifluoromethyl)benzoate] cannot be ordered by IC50: < 100 nM for the first, < 100 nM for the second.

CCn1nc(C[C@@H](C)COC(=O)c2cccc(F)c2)c2c1C(=O)NCC1(CCOCC1)C2 [Example 143, [(2R)-3-(1-ethyl-8-oxo-spiro[6,7-dihydro-4H-pyrazolo[3,4-c]azepine-5,4′-tetrahydropyran]-3-yl)-2-methyl-propyl] 3-fluorobenzoate] and CCn1nc(C[C@@H](C)COC(=O)c2cccc(C(N)=O)c2)c2c1C(=O)NCC1(CCOCC1)C2 [Example 178, [(2R)-3-(1-ethyl-8-oxo-spiro[6,7-dihydro-4H-pyrazolo[3,4-c]azepine-5,4′-tetrahydropyran]-3-yl)-2-methyl-propyl] 3-carbamoylbenzoate] cannot be ordered by IC50: < 100 nM for the first, < 100 nM for the second.

CCn1nc(CCCCOC(=O)c2ccc(S(C)(=O)=O)cc2)c2c1C(=O)NCC1(CCOCC1)C2 [Example 130, 4-(1-ethyl-8-oxo-spiro[6,7-dihydro-4H-pyrazolo[3,4-c]azepine-5,4′-tetrahydropyran]-3-yl)butyl 4-methylsulfonyl-benzoate] and CCn1nc(CCCCOC(=O)c2ccc(C(C)=O)cc2)c2c1C(=O)NCC1(CCOCC1)C2 [Example 126, 4-(1-ethyl-8-oxo-spiro[6,7-dihydro-4H-pyrazolo[3,4-c]azepine-5,4′-tetrahydropyran]-3-yl)butyl 4-acetylbenzoate] cannot be ordered by IC50: < 100 nM for the first, < 100 nM for the second.

CCn1nc(CCCOC(=O)C2CCCC2)c2c1C(=O)NCC1(CCOCC1)C2 [Example 5, 3-(1-ethyl-8-oxo-spiro[6,7-dihydro-4H-pyrazolo[3,4-c]azepine-5,4′-tetrahydropyran]-3-yl)propyl cyclopentanecarboxylate] and CCn1nc(CCCOC(=O)c2ccc(F)c(F)c2)c2c1C(=O)NCC1(CCOCC1)C2 [Example 23, 3-(1-ethyl-8-oxo-spiro[6,7-dihydro-4H-pyrazolo[3,4-c]azepine-5,4′-tetrahydropyran]-3-yl)propyl 3,4-difluorobenzoate] cannot be ordered by IC50: < 100 nM for the first, < 100 nM for the second.

CCn1nc(CCCOC(=O)c2cccc(OC)c2F)c2c1C(=O)NCC1(CCOCC1)C2 [Example 39, 3-(1-ethyl-8-oxo-spiro[6,7-dihydro-4H-pyrazolo[3,4-c]azepine-5,4′-tetrahydropyran]-3-yl)propyl 2-fluoro-3-methoxy-benzoate] and CCn1nc(CCCOC(=O)c2cccc(C(=O)N3CCOCC3)c2)c2c1C(=O)NCC1(CCOCC1)C2 [Example 118, 3-(1-ethyl-8-oxo-spiro[6,7-dihydro-4H-pyrazolo[3,4-c]azepine-5,4′-tetrahydropyran]-3-yl)propyl 3-(morpholine-4-carbonyl)benzoate] cannot be ordered by IC50: < 100 nM for the first, < 100 nM for the second.

— patent US10793580B2, “Substituted pyrazoloazepin-8-ones and their use as phosphodiesterase inhibitors” (LEO Pharma A/S, priority 2016, dated 2020)
